# Measurements as given in patent US12569510B2, “Antiviral prodrugs and pharmaceutical compositions thereof” (THE SCRIPPS RESEARCH INSTITUTE, priority 2019, dated 2026).
# Like-named read-outs stand apart in the source and are kept apart here.
# Tests used:
# [1] = SC rat PK: EFdA plasma levels; settings: for Cmax compared with EFdA / duration of plasma levels of EFdA above lower limit of quantitation (LLOQ): single SC dose, 10 mg/kg EFdA equivalent, 4 mg/mL; for half life and mean residence life compared with EFdA: SC, 100 mg/kg EFdA equivalent
# Method: (§1) • Animals: Animals (Male SD rats ˜200-250 g and Male rhesus macaques ˜2-3 kg) were obtained from an approved vendor (SLAC Laboratory Animal Co. Ltd., Shanghai, China and/or Topgene Biotechnology, Wuhan city, Hubei Province, China). • Acclimation/Quarantine: Following arrival, animals were assessed as to their general health by a member of the veterinary staff or other authorized personnel. Animals were acclimated for at least 3 days before being placed on study. • Animal Husbandry: Animals were group housed during acclimation and individually housed during the study. The animal room environment will be controlled (target conditions: temperature 18 to 26° C., relative humidity 30 to 70%, 12 hours artificial light and 12 hours dark). Temperature and relative humidity were monitored daily. • Animal Cannulation: No
# (§2) Animals were fasted at least 12 hours prior to the administration. All animals had access to Certified Rodent and non-Rodent Diet (Catalog #M01-F, SLAC Laboratory Animal Cl. Ltd., Shanghai, China) ad libitum 4 hours post dosing.
# Animals were dosed within four hours of suspension preparation. Two 20 μL aliquots of each prepared suspension were transferred into 1.5 mL of polypropylene microcentrifuge tubes and dose validation was run by LC/UV or LC-MS/MS.
# The suspensions were administered via subcutaneous injection (SC) following facility standard operations procedures (SOPs).
# Approximately 200 μL blood was collected from saphenous vein at each time point for rats and 0.5 mL for rhesus macaques. All blood samples were transferred into microcentrifuge tubes containing 4 μL of K2EDTA (0.5M) as anti-coagulant and placed on wet ice until processed for plasma.
# Blood: Blood samples were processed for plasma by centrifugation at approximately 4° C., 3000 g 15 min within half an hour of collection. Plasma samples was stored in polypropylene tubes, quick frozen over dry ice and kept at −70±10° C. until LC/MS/MS analysis.
# If the carryover couldn't meet the criteria, then the percent of carryover should be estimated following in-house bioanalytical SOP. 6. Data Analysis
# Plasma concentration versus time data was analyzed by non-compartmental approaches using the Phoenix WinNonlin 6.3 software program. Cmax, Tmax, T1/2, AUC(0-t), AUC(0-inf), MRT(0-t), MRT(0-inf), % F and graphs of plasma concentration versus time profile were generated.
# Several prodrugs including EFdA (1) as a control were subjected to a single dose rat PK studies via subcutaneous route of administration. All animals were injected with equivalent doses of 10 mg/kg and concentration of 4 mg/mL of EFdA as an aqueous suspension in 0.5% CMC-Na and 0.5% TWEEN-80.
# After optimization, SC rat PK studies were performed again with high equivalent dose of 100 mg/kg at equivalent concentration of 120 mg/mL for Compound 3, 116 mg/mL for Compound 5, and 319 mg/mL of EFdA, respectively.
# [2] = Stability of aqueous suspension, 2 weeks at 40° C./75% relative humidity (XPRD); type: physicochemical; settings: aqueous 0.25% CMC-Na/0.5% TWEEN-80 suspension
# Method: LC-MS (ESI+): m/z 502.41 [M+H]^+. About 275 mg/g of Compound 6 was suspended in aqueous 0.25% CMC-Na/0.5% TWEEN-80 (26 gauge syringeability) and was subjected to stability for 2 weeks at 40° C./75% relative humidity.
# [3] = Optimization of surfactant concentration in Compound 5 suspension (syringeability, viscosity, flow, resuspension); type: physicochemical; set-up: key to Flow: + No Flow; ++ Less Flow; +++ Good Flow; ++++ Very Good Flow; key to Viscosity: ++++ Slightly Viscous; +++ Viscous; ++ Very Viscous; + Semisolid; key to Syringeability (26 G): ✓: Syringeable; settings: 400 mg/gm Compound 5, after 10 days of storage
# Method: The concentration of surfactant was optimized with 0.3% and 0.5% of methyl cellulose in a formation containing 400 mg/gm of micronized Compound 5. Formulations were prepared with different concentrations of TWEEN-80 (0.1, 0.2 and 0.3%).
# [4] = SC rhesus PK: EFdA plasma levels; settings: rhesus macaque, single SC dose, 50 mg/kg EFdA equivalent
# Method: as §1, §2
# Animals were dosed within four hours of suspension preparation. […]
# Plasma concentration versus time data was analyzed by non-compartmental approaches using the Phoenix WinNonlin 6.3 software program. […]
# [5] = Aqueous solubility (pH 7.4); type: physicochemical
# [6] = 0.3% Methyl Cellulose, 0.1% TWEEN-80
# [7] = 0.3% Methyl Cellulose, 0.2% TWEEN-80
# [8] = 0.3% Methyl Cellulose, 0.3% TWEEN-80
# [9] = 0.5% Methyl Cellulose, 0.1% TWEEN-80
# [10] = 0.5% Methyl Cellulose, 0.2% TWEEN-80
# [11] = 0.5% Methyl Cellulose, 0.3% TWEEN-80
# [12] = aqueous medium at pH 7.4, pH 7.4, aqueous buffer, read-out: Aqueous solubility (pH 7.4)
smiles,measurement,setting,value
"C#C[C@]1(COC(=O)C(C)C)O[C@@H](n2cnc3c(N)nc(F)nc32)C[C@@H]1OC(=O)C(C)C [Compound 2, (2R,3S,5R)-5-(6-amino-2-fluoro-9H-purin-9-yl)-2-ethynyl-2-((isobutyryloxy)methyl)tetrahydrofuran-3-yl isobutyrate]",Cmax compared with EFdA,[1],much lower than for EFdA
same,duration of plasma levels of EFdA above lower limit of quantitation (LLOQ),[1],more than a week
same,crystallinity in suspension (XPRD),[2],retains good crystallinity in suspension
"C#C[C@]1(COC(=O)Cc2ccccc2)O[C@@H](n2cnc3c(N)nc(F)nc32)C[C@@H]1OC(=O)Cc1ccccc1 [Compound 5, (2R,3S,5R)-5-(6-amino-2-fluoro-9H-purin-9-yl)-2-ethynyl-2-((2-phenylacetoxy)methyl)tetrahydrofuran-3-yl 2-phenylacetate]",half life and mean residence life compared with EFdA,[1],Enhanced half life and mean residence life
same,Cmax compared with EFdA,[1],much lower than for EFdA
same,duration of plasma levels of EFdA above lower limit of quantitation (LLOQ),[1],more than a week
same,Flow,[3]; [6],++++
same,Syringeability (26 G),[3]; [6],✓
same,Time Taken to Resuspend,[3]; [6],2.2 min
same,Viscosity,[3]; [6],++++
same,Flow,[3]; [7],++++
same,Syringeability (26 G),[3]; [7],✓
same,Time Taken to Resuspend,[3]; [7],2.5 min
same,Viscosity,[3]; [7],++++
same,Flow,[3]; [8],++++
same,Syringeability (26 G),[3]; [8],✓
same,Time Taken to Resuspend,[3]; [8],2.3 min
same,Viscosity,[3]; [8],++++
same,Flow,[3]; [9],++++
same,Syringeability (26 G),[3]; [9],✓
same,Time Taken to Resuspend,[3]; [9],2.5 min
same,Viscosity,[3]; [9],++++
same,Flow,[3]; [10],++++
same,Syringeability (26 G),[3]; [10],✓
same,Time Taken to Resuspend,[3]; [10],2.5 min
same,Viscosity,[3]; [10],++++
same,Flow,[3]; [11],++++
same,Syringeability (26 G),[3]; [11],✓
same,Time Taken to Resuspend,[3]; [11],3.0 min
same,Viscosity,[3]; [11],++++
same,duration of plasma levels of EFdA above LLOQ,[4],more than a month
"C#C[C@]1(COC(=O)c2ccccc2)O[C@@H](n2cnc3c(N)nc(F)nc32)C[C@@H]1OC(=O)c1ccccc1 [Compound 6, (2R,3S,5R)-5-(6-amino-2-fluoro-9H-purin-9-yl)-2-((benzoyloxy)methyl)-2-ethynyl tetrahydrofuran-3-yl benzoate]",crystallinity in suspension (XPRD),[2],retains good crystallinity in suspension
same,solubility,[5]; [12],< 2 µg/mL
"C#C[C@]1(COC(=O)C2CCCC2)O[C@@H](n2cnc3c(N)nc(F)nc32)C[C@@H]1OC(=O)C1CCCC1 [Compound 4, (2R,3S,5R)-5-(6-amino-2-fluoro-9H-purin-9-yl)-2-(((cyclopentanecarbonyl)oxy)methyl)-2-ethynyltetrahydrofuran-3-yl cyclopentanecarboxylate]",solubility,[5]; [12],< 1 µg/mL
"C#C[C@]1(CO)O[C@@H](n2cnc3c(N)nc(F)nc32)C[C@@H]1O [Compound 1, 4′-Ethynyl-2-fluoro-2′-deoxyadenosine, reference compound]",solubility,"[5]; aqueous medium at physiological pH, pH 7.4, aqueous buffer, read-out: aqueous solubility at physiological pH",877 µg/mL
"C#C[C@]1(COC(=O)C(CC)CC)O[C@@H](n2cnc3c(N)nc(F)nc32)C[C@@H]1OC(=O)C(CC)CC [Compound 3, (2R,3S,5R)-5-(6-amino-2-fluoro-9H-purin-9-yl)-2-(((2-ethylbutanoyl)oxy)methyl)-2-ethynyltetrahydrofuran-3-yl 2-ethylbutanoate]",half life and mean residence life compared with EFdA,[1],Enhanced half life and mean residence life
same,Cmax compared with EFdA,[1],much lower than for EFdA
same,duration of plasma levels of EFdA above lower limit of quantitation (LLOQ),[1],more than a week
